From patent US7141592B2, “Substituted oxadiazolidinediones” (Wyeth, priority 2003, dated 2006)

target: T1, recombinant human plasminogen activator inhibitor-1 (PAI-1) (Homo sapiens, UniProt P05121); test: Primary screen for the PAI-1 inhibition (chromogenic tPA activity, Spectrozyme-tPA); assay type: biochemical; details: compound at 100 μM
T1 construct: purchased Molecular Innovations, Royal Oak, Mich
Description: Test compounds are dissolved in DMSO at a final concentration of 10 mM, then diluted 100× in physiologic buffer. The inhibitory assay is initiated by the addition of the substituted oxadiazolidinedione (1–100 μM final concentration, maximun DMSO concentration of 0.2%) in a pH 6.6 buffer containing 140 nM recombinant human plasminogen activator inhibitor-1 (PAI-1; Molecular Innovations, Royal Oak, Mich.). Following a 1 hour incubation at room temperature, 70 nM of recombinant human tissue plasminogen activator (tPA) is added, and the combination of the substituted oxadiazolidinedione, PAI-1 and tPA is incubated for an additional 30 minutes. Following the second incubation, Spectrozyme-tPA (American Diagnostica, Greenwich, Conn.), a chromogenic substrate for tPA, is added and absorbance read at 405 nm at 0 and 60 minutes. Relative PAI-1 inhibition is equal to the residual tPA activity in the presence of the test compound and PAI-1. Control treatments include the complete inhibition of tPA by PAI-1 at the molar ratio employed (2:1), and the absence of any effect of the substituted oxadiazolidinedione on tPA alone.

T1 sequence (P05121 24-402): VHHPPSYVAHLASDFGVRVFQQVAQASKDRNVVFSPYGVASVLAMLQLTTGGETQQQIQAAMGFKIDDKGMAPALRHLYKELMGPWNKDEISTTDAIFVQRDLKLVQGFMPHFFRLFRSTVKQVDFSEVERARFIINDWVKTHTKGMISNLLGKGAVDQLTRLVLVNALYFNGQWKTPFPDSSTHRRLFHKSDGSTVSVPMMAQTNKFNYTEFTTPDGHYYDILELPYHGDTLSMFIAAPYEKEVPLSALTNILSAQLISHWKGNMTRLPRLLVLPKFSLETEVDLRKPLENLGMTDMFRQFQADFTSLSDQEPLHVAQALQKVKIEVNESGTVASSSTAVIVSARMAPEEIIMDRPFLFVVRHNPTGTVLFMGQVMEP

| inhibition at 100 µM [%] | Molecule | % Inhibition @ 100 μM [%] |
| --- | --- | --- |
| – | 2-({4′-[(3-bromobenzyl)oxy]-1,1′-biphenyl-3-yl}methyl)-1,2,4-oxadiazolidine-3,5-dione [Compound 52] | 80 |
| – | 2-({4′-[(4-bromobenzyl)oxy]-1,1′-biphenyl-3-yl}methyl)-1,2,4-oxadiazolidine-3,5-dione [Compound 50] | 41 |
| – | 2-({4′-[(4-tert-butylbenzyl)oxy]-1,1′-biphenyl-3-yl}methyl)-1,2,4-oxadiazolidine-3,5-dione [Compound 48] | 23 |
| – | 2-[(3′-{[3-(trifluoromethyl)benzyl]oxy}-1,1′-biphenyl-3-yl)methyl]-1,2,4-oxadiazolidine-3,5-dione [Compound 41] | 81 |
| – | 2-[(3′-{[4-(trifluoromethyl)benzyl]oxy}-1,1′-biphenyl-3-yl)methyl]-1,2,4-oxadiazolidine-3,5-dione [Compound 37] | 3 |
| – | 2-[(4′-{[3,5-bis(trifluoromethyl)benzyl]oxy}-1,1′-biphenyl-3-yl)methyl]-1,2,4-oxadiazolidine-3,5-dione [Compound 51] | 65 |
| – | 2-[(4′-{[4-(trifluoromethyl)benzyl]oxy}-1,1′-biphenyl-3-yl)methyl]-1,2,4-oxadiazolidine-3,5-dione [Compound 49] | 28 |
| – | 2-{3-[3-(4-isobutylphenoxy)prop-1-ynyl]benzyl}-1,2,4-oxadiazolidine-3,5-dione [Compound 70] | 76 |
| – | 2-{4-[3-(4-isobutylphenoxy)prop-1-ynyl]benzyl}-1,2,4-oxadiazolidine-3,5-dione [Compound 64] | 65 |
| – | 2-{[4-(phenylethynyl)thien-2-yl]methyl}-1,2,4-oxadiazolidine-3,5-dione [Compound 58] | 45 |
| – | 2-{[5-(phenylethynyl)thien-2-yl]methyl}-1,2,4-oxadiazolidine-3,5-dione [Compound 59] | 60 |
| 100 | C=CCn1cc(Cn2oc(=O)[nH]c2=O)c2cc(OCc3ccc(C(C)(C)C)cc3)ccc21 [Compound 2, 2-({1-allyl-5-[(4-tert-butylbenzyl)oxy]-1H-indol-3-yl}methyl)-1,2,4-oxadiazolidine-3,5-dione] | – |
| 9 | CCn1cc(Cn2oc(=O)[nH]c2=O)c2cc(OCc3ccc(C(C)(C)C)cc3)ccc21 [Compound 3, 2-({5-[(4-tert-butylbenzyl)oxy]-1-ethyl-1H-indol-3-yl}methyl)-1,2,4-oxadiazolidine-3,5-dione] | – |
| 96 | C=CCn1cc(Cn2oc(=O)[nH]c2=O)c2cc(OCc3ccc(C(F)(F)F)cc3)ccc21 [Compound 4, 2-[(1-allyl-5-{[4-(trifluoromethyl)benzyl]oxy}-1H-indol-3-yl)methyl]-1,2,4-oxadiazolidine-3,5-dione] | – |
| 100 | C=CCn1cc(Cn2oc(=O)[nH]c2=O)c2cc(OCc3cc(C(F)(F)F)cc(C(F)(F)F)c3)ccc21 [Compound 5, 2-[(1-allyl-5-{[3,5-bis(trifluoromethyl)benzyl]oxy}-1H-indol-3-yl)methyl]-1,2,4-oxadiazolidine-3,5-dione] | – |
| 28 | CCn1cc(Cn2oc(=O)[nH]c2=O)c2cc(OCc3cc(C(F)(F)F)cc(C(F)(F)F)c3)ccc21 [Compound 6, 2-[(5-{[3,5-bis(trifluoromethyl)benzyl]oxy}-1-ethyl-1H-indol-3-yl)methyl]-1,2,4-oxadiazolidine-3,5-dione] | – |
| 94 | O=c1[nH]c(=O)n(Cc2cn(Cc3ccccc3)c3ccc(OCc4cc(C(F)(F)F)cc(C(F)(F)F)c4)cc23)o1 [Compound 7, 2-[(1-benzyl-5-{[3,5-bis(trifluoromethyl)benzyl]oxy}-1H-indol-3-yl)methyl]-1,2,4-oxadiazolidine-3,5-dione] | – |
| 94 | O=c1[nH]c(=O)n(Cc2cn(Cc3ccccc3)c3ccc(OCc4cccc(Br)c4)cc23)o1 [Compound 8, 2-({1-benzyl-5-[(3-bromobenzyl)oxy]-1H-indol-3-yl}methyl)-1,2,4-oxadiazolidine-3,5-dione] | – |
| 59 | Cc1cccc(COc2ccc3c(c2)c(Cn2oc(=O)[nH]c2=O)cn3Cc2ccccc2)c1 [Compound 11, 2-({1-benzyl-5-[(3-methylbenzyl)oxy]-1H-indol-3-yl}methyl)-1,2,4-oxadiazolidine-3,5-dione] | – |

| inhibition at 100 µM [%] | Molecule | % Inhibition @ 100 μM [%] |
| --- | --- | --- |
| 100 | C#CCn1cc(Cn2oc(=O)[nH]c2=O)c2cc(OCc3ccc(C(F)(F)F)cc3)ccc21 [Compound 12, 2-[(1-(2-propynyl)-5-{[4-(trifluoromethyl)benzyl]oxy}-1H-indol-3-yl)methyl]-1,2,4-oxadiazolidine-3,5-dione] | – |
| 100 | O=c1[nH]c(=O)n(Cc2cn(Cc3ccccc3)c3ccc(OCc4ccc(C(F)(F)F)cc4)cc23)o1 [Compound 13, 2-[(1-benzyl-5-{[4-(trifluoromethyl)benzyl]oxy}-1H-indol-3-yl)methyl]-1,2,4-oxadiazolidine-3,5-dione] | – |
| 100 | O=c1[nH]c(=O)n(Cc2cn(Cc3ccccc3)c3ccc(OCc4ccc(Br)cc4)cc23)o1 [Compound 14, 2-({1-benzyl-5-[(4-bromobenzyl)oxy]-1H-indol-3-yl}methyl)-1,2,4-oxadiazolidine-3,5-dione] | – |
| 91 | C#CCn1cc(Cn2oc(=O)[nH]c2=O)c2cc(OCc3cc(C(F)(F)F)cc(C(F)(F)F)c3)ccc21 [Compound 15, 2-{[5-{[3,5-bis(trifluoromethyl)benzyl]oxy}-1-(2-propynyl)-1H-indol-3-yl]methyl}-1,2,4-oxadiazolidine-3,5-dione] | – |
| 49 | C#CCn1cc(Cn2oc(=O)[nH]c2=O)c2cc(OCc3ccccc3Cl)ccc21 [Compound 17, 2-{[5-[(2-chlorobenzyl)oxy]-1-(2-propynyl)-1H-indol-3-yl]methyl}-1,2,4-oxadiazolidine-3,5-dione] | – |
| 100 | C#CCn1cc(Cn2oc(=O)[nH]c2=O)c2cc(OCc3ccc(Cl)c(Cl)c3)ccc21 [Compound 18, 2-{[5-[(3,4-dichlorobenzyl)oxy]-1-(2-propynyl)-1H-indol-3-yl]methyl}-1,2,4-oxadiazolidine-3,5-dione] | – |
| 79 | O=c1[nH]c(=O)n(Cc2cn(Cc3ccccc3)c3ccc(OCc4ccc(Cl)c(Cl)c4)cc23)o1 [Compound 19, 2-({1-benzyl-5-[(3,4-dichlorobenzyl)oxy]-1H-indol-3-yl}methyl)-1,2,4-oxadiazolidine-3,5-dione] | – |
| 84 | C#CCn1cc(Cn2oc(=O)[nH]c2=O)c2cc(OCc3ccc4ccccc4c3)ccc21 [Compound 20, 2-{[5-(2-naphthylmethoxy)-1-(2-propynyl)-1H-indol-3-yl]methyl}-1,2,4-oxadiazolidine-3,5-dione] | – |
| 98 | C=CCn1cc(Cn2oc(=O)[nH]c2=O)c2cc(OCc3ccc4ccccc4c3)ccc21 [Compound 21, 2-{[1-allyl-5-(2-naphthylmethoxy)-1H-indol-3-yl]methyl}-1,2,4-oxadiazolidine-3,5-dione] | – |
| 92 | O=c1[nH]c(=O)n(Cc2cn(Cc3ccccc3)c3ccc(OCc4ccc5ccccc5c4)cc23)o1 [Compound 22, 2-{[1-benzyl-5-(2-naphthylmethoxy)-1H-indol-3-yl]methyl}-1,2,4-oxadiazolidine-3,5-dione] | – |
| 91 | C#CCn1cc(Cn2oc(=O)[nH]c2=O)c2cc(OCc3ccc(C(C)(C)C)cc3)ccc21 [Compound 23, 2-{[5-[(4-tert-butylbenzyl)oxy]-1-(2-propynyl)-1H-indol-3-yl]methyl}-1,2,4-oxadiazolidine-3,5-dione] | – |
| 68 | C#CCn1cc(Cn2oc(=O)[nH]c2=O)c2cc(OCc3ccc(Br)cc3)ccc21 [Compound 24, 2-{[5-[(4-bromobenzyl)oxy]-1-(2-propynyl)-1H-indol-3-yl]methyl}-1,2,4-oxadiazolidine-3,5-dione] | – |
| 64 | C=CCn1cc(Cn2oc(=O)[nH]c2=O)c2cc(OCc3ccc(Br)cc3)ccc21 [Compound 25, 2-({1-allyl-5-[(4-bromobenzyl)oxy]-1H-indol-3-yl}methyl)-1,2,4-oxadiazolidine-3,5-dione] | – |
| 100 | C#CCn1cc(Cn2oc(=O)[nH]c2=O)c2cc(OCc3cccc(Br)c3)ccc21 [Compound 26, 2-{[5-[(3-bromobenzyl)oxy]-1-(2-propynyl)-1H-indol-3-yl]methyl}-1,2,4-oxadiazolidine-3,5-dione] | – |
| 100 | C=CCn1cc(Cn2oc(=O)[nH]c2=O)c2cc(OCc3cccc(Br)c3)ccc21 [Compound 27, 2-({1-allyl-5-[(3-bromobenzyl)oxy]-1H-indol-3-yl}methyl)-1,2,4-oxadiazolidine-3,5-dione] | – |
| 48 | C#CCn1cc(Cn2oc(=O)[nH]c2=O)c2cc(OCc3cccc(Cl)c3)ccc21 [Compound 28, 2-{[5-[(3-chlorobenzyl)oxy]-1-(2-propynyl)-1H-indol-3-yl]methyl}-1,2,4-oxadiazolidine-3,5-dione] | – |
| 79 | C=CCn1cc(Cn2oc(=O)[nH]c2=O)c2cc(OCc3cccc(C(F)(F)F)c3)ccc21 [Compound 29, 2-[(1-allyl-5-{[3-(trifluoromethyl)benzyl]oxy}-1H-indol-3-yl)methyl]-1,2,4-oxadiazolidine-3,5-dione] | – |
| 91 | C=CCn1cc(Cn2oc(=O)[nH]c2=O)c2cc(OCc3ccccc3Cl)ccc21 [Compound 33, 2-({1-allyl-5-[(2-chlorobenzyl)oxy]-1H-indol-3-yl}methyl)-1,2,4-oxadiazolidine-3,5-dione] | – |
